Results reported in patent publication US20180360799A1, “Nitrofuran Derivatives That Induce Apoptosis in Breast Cancer Cells by Activating Protein Expression” (Oklahoma Medical Research Foundation, priority 2015, published 2018).

Key:
[1] = test system: XBP1 mRNA splicing (IRE1α pathway); test: XBP1 mRNA splicing by RT-PCR in HCC-1806 cells; type: cell-based, human; details: HCC-1806, tunicamycin 1 μg/mL, at 8 h
Experimental: FIG. 3E is a graph showing XBP1 mRNA levels in HCC-1806 cells treated with tunicamycin or a 5-nitrofuran-2-amide derivative compound 3d. HCC-1806 cells were treated with compound 3d (10 μM) or tunicamycin (Tm, 1 μg/mL) for the indicated times. XBP1 mRNA levels were analyzed by RT-PCR and the products were resolved by agarose gel electrophoresis. The full-length (unspliced, XBP1u) and spliced (XBP1s) forms of XBP1 mRNA are indicated. GAPDH mRNA was used as an internal control.
The percentage of XBP1s relative to total XBP1 was calculated as: (XBP1s/[XBP1s+XBP1u])×100%. The data shown are representative of 3 independent studies.
The inventor next asked whether the IRE1α and ATF6 branches of the unfolded protein response were also activated by compound 3d treatment of TNBC cells. […] XBP1 mRNA splicing, as measured by XBP1s levels, increased only slightly in the first 24 h after compound 3d treatment of HCC-1806 cells (from 11% of total XBP1 at 0 h to 15˜20% at 2˜24 h). […] Next, it was determined whether compound 3d activates the ATF6 pathway by evaluating its effect on the activity of an ER stress response elements (ERSE)-Luc reporter stably established in HEK293 cell line. […]

[2] = test system: UPRE-Luciferase (UPRE-Luc) reporter; test: UPRE-Luc reporter assay in HEK293 cells; type: cell-based, human; details: 3d 10 μM or Tm 1 μg/mL, 24 h
Experimental: (§1) FIG. 3G is a graph showing HEK293 cells stably expressing CHOP-Luc, ERSE-Luc, or UPRE-luc reporters were treated with DMSO, a 5-nitrofuran-2-amide derivative, or tunicamycin. HEK293 cells stably expressing CHOP-Luc, ERSE-Luc, or UPRE-luc reporters were treated with DMSO, compound 3d (10 μM), or Tm (1 μg/mL) for 24 h, and luciferase activity was measured using the Bright-Glo assay. Results are the means of 4 replicate wells and are representative of 3 independent experiments.
(§2) The inventor next asked whether the IRE1α and ATF6 branches of the unfolded protein response were also activated by compound 3d treatment of TNBC cells. […] XBP1 mRNA splicing, as measured by XBP1s levels, increased only slightly in the first 24 h after compound 3d treatment of HCC-1806 cells (from 11% of total XBP1 at 0 h to 15˜20% at 2˜24 h). […] Next, it was determined whether compound 3d activates the ATF6 pathway by evaluating its effect on the activity of an ER stress response elements (ERSE)-Luc reporter stably established in HEK293 cell line.
(§3) The HEK293T CHOP reporter cell line (CHOP-Luc) was previously described.^21 HEK293T cells were stably transfected with ERSE-Luciferase^25 and UPRE-Luciferase^23 reporters to generate ERSE-Luc and UPRE-Luc reporter cell lines, respectively. […] Luciferase activity was measured with a Bright-Glo kit 24 h later.

[3] = test system: ER stress response elements (ERSE)-Luc reporter; test: ERSE-Luc reporter assay in HEK293 cells; type: cell-based, human; details: Tm 1 μg/mL, 24 h
Experimental: as §1, §2, §3

[4] = test system: HCC-1806 cells; test: Cell viability, CellTiter-Glo, HCC-1806; type: cell-based; details: Homo sapiens, HCC1806; 0.125 μM to 20 μM, CellTiter-Glo; read-out: IC50 cell viability HCC-1806
Experimental: (§4) Given the known functions of CHOP in ER stress-induced apoptosis^16, 17 and in regulating cancer cell death,^6, 19, 20 the inventor investigated whether compound 1 affects the viability of TNBC cells. Three human TNBC cell lines, HCC-1806, HCC-1143, and HCC-38, were treated with doses of 1 ranging from 0.125 μM to 20 μM and their viability was assessed using the CellTiter-Glo assay, which measures intracellular ATP levels.
(§5) HCC-1806, HCC-1143, or HCC-38 cells were seeded at 3×10^3 cells/well in a 384-well plate and treated with compounds at the indicated concentrations. After 3 d treatment, the medium was aspirated and 20 μL/well of CellTiter-Glo reagent was added. Cell viability was measured with an EnVision multilabel plate reader. The IC50 value for cell viability of each compound was calculated with GraphPad Prism (La Jolla, Calif., US).

[5] = test system: HCC-38 cells; test: Cell viability, CellTiter-Glo, HCC-38; type: cell-based; details: Homo sapiens, HCC38; 0.125 μM to 20 μM, CellTiter-Glo; read-out: IC50 cell viability HCC-38
Experimental: as §4, §5

[6] = test system: CHOP promoter-luciferase (CHOP-Luc) reporter; test: CHOP-Luc reporter assay in HEK293 cells (Bright-Glo); type: cell-based, human; details: 10 μM, 24 h
Experimental: To identify compounds that activate the expression of CHOP, a HEK293 cell line stably expressing a CHOP-Luc reporter construct that faithfully reflects endogenous CHOP gene expression^21 was used to screen approximately 50,000 structurally diverse small molecules.
HEK293T CHOP-Luc cells were seeded at 7×10^3 cells/well in 384-well plates and treated with 10 μM of the library compounds the next day. After 24 h treatment, the medium was aspirated and 20 μL/well of Bright-Glo luciferase assay reagent was added. Luminescence was measured with an EnVision multilabel plate reader (PerkinElmer, Waltham, Mass., US). Hit selection was based on standard scores. The mean and standard deviation (SD) of luminescence for each compound was determined, and the standard score for each compound was then calculated as (raw measurement of a compound−mean)/SD of the plate. Compounds that increased ATP levels >3 SD compared with control wells (standard score >3) were considered hits.

[7] = test system: HCC-1143 cells; test: Cell viability, CellTiter-Glo, HCC-1143; type: cell-based; details: Homo sapiens, HCC1143; 0.125 μM to 20 μM, CellTiter-Glo; read-out: IC50 cell viability HCC-1143
Experimental: as §4, §5

[8] = test system: endogenous CHOP gene; test: Endogenous CHOP mRNA by qRT-PCR in HEK293 cells; type: cell-based, human; details: 10 μM, 24 h
Source text: The primer sequences used were: Human CHOP: SEQ ID NO: 1 F, 5′-[sequence]-3′ and SEQ ID NO: 2 R, 5′-[sequence]-3′. Human ATF4: SEQ ID NO: 3 F, 5′-[sequence]-3′ and SEQ ID NO: 4 R, 5′-[sequence]-3′. […] Human Cyclophilin A: SEQ ID NO: 7 F, 5′-[sequence]-3′ and SEQ ID NO: 8 R, 5′-[sequence]-3′. Human GAPDH: SEQ ID NO: 9 F, 5′-[sequence]-3′ and SEQ ID NO: 10 R, 5′-[sequence]-3′.

Row | Compound | XBP1s, percentage of total XBP1 [1] [%] | increase of UPRE-Luc luciferase activity [2] [fold] | increase of ERSE-driven luciferase activity [3] [fold] | IC50 [4] [µM] | IC50 [5] [µM] | increase of CHOP-Luc reporter activity [6] [fold] | IC50 [7] [µM] | increase of mRNA level of the endogenous CHOP gene [8]
1 | tunicamycin [reference compound] | ~87 | > 25 | ~12 |  |  |  |  | 
2 | O=C(Nc1ccc(I)cc1)c1ccc([N+](=O)[O-])o1 [Compound 1, N-(4-iodophenyl)-5-nitrofuran-2-carboxamide] |  |  |  | 6.2 | 8.7 | 24 | 9.5 | up to 30 fold
